Experimental data taken from US20220251039A1, “Diaryl-B-Lactam Compound and Preparation Method and Pharmaceutical Use Thereof” (Fudan University, priority 2016, published 2022).
Entries after “also recorded” stand apart in the source; their conditions may differ.

Tests used:
SKOV3 = test: MTT antiproliferative assay, SKOV3; assay type: cell-based; conditions: Homo sapiens, SK-OV-3, SKOV3, 48 h, read-out: In vitro cell growth inhibition IC50, SKOV3
Description: (§1) 5000 tumor cells per well were seeded into 96-well plate and allowed to adhere overnight. Cells were treated with various concentrations of tested compounds or DMSO (0.2%, as negative control) for 48 h. Then, the medium along with tested compounds or DMSO was discarded and […] per well MTT containing medium (0.5 mg/mL) was added. After incubation at 37° C. for 4 h, the MTT-containing medium was replaced by DMSO (150 μL per well) to dissolve the formazan crystals. Absorbance of the resulting solution was measured by microplate reader (Biotech ELx800) at 540 nm wavelength. Growth inhibition rates were calculated with the absorbance. Half maximal inhibitory concentration (IC50) of each compound was calculated using GraphPad Prism, version 6.0.

Hela = test: MTT antiproliferative assay, Hela; assay type: cell-based; conditions: Homo sapiens, 48 h, read-out: In vitro cell growth inhibition IC50, Hela
Description: as §1

tubulin [1] = test: Immunofluorescent analysis of tubulin morphology; assay type: cell-based, human; conditions: SKOV-3 cells, 24 h
Description: After treatment with diluent (0.2% DMSO) or tested compounds at indicated concentrations for 24 h, SKOV-3 cells were fixed with methanol, permeabilized with 0.1% Triton X-100 in PBS and blocked by goat serum. Then the cells were incubated with a-tubulin antibody at 4° C. overnight, followed by incubation with Alexa 488 labeled secondary antibody (Jackson ImmunoResearch) at RT for 1 h. After being stained with DAPI, cells were examined and photographed with a Leica SP5 co-focal fluorescence microscope.

MDA-MB-231 cells = test: Colony formation assay; assay type: cell-based, human; conditions: 48 h treatment, 7-10 days growth
Description: 1000 MDA-MB-231 cells per well were seeded into 6-well plate at a single cell density and were cultured at 37° C. for 48 h. After being treated with indicated concentrations of 69, 70 and 97, CA-4 as positive control, or diluent (0.2% DMSO) as negative control for 48 h, the agents containing medium was replaced by fresh medium to allow cell growth for additional 7-10 days. Then the cells were fixed with methanol and stained with gentian violet for 30 min. The number of colonies which consisted of more than 50 cells were counted. The results were indicated as mean values from three independent determinations.

tubulin [2] = test: Immunoblotting analysis of polymerized/depolymerized tubulin; assay type: cell-based, human; conditions: Hela cells, 6 h
Description: After being treated with diluent (0.2% DMSO), tested compound, CA-4 or PTX for 6 h, Hela cells were lysed with microtubulestabilizing buffer, containing 100 mM PIPES, pH 6.8, 1 mM MgCl2, 2 mM EGTA, 0.5% NP-40, 2 M glycerol, 5 μM PTX and protease inhibitors cocktail (Roche), and the lysate was centrifuged at 15,000 rpm for 15 min. Supernatant containing depolymerized tubulin was carefully collected, whereas pellet (polymerized tubulin) was further dissolved in SDS-lysis buffer (Beyotime, China). Equal amounts of supernatant and dissolved pellet were subjected to immunoblotting analysis as described above using a tubulin antibody (Proteintech).

[3] = test system: Bax, p53 and cleaved-PARP; test: Expression level of apoptosis associated proteins; assay type: cell-based, human; conditions: HeLa cells, Western blot and qPCR
Description: A. Western blotting: After being treated with candidate compound, cells were harvested and lysed. Then, the lysate was isolated by ultracentrifuge and quantified by BCA assay according to the protocol. After being denatured, equivalent protein of each sample was separated by SDS-PAGE gel and wet-transferred onto […] nitrocellulose membrane. After being blocked by PBS containing 5% skim milk, the membrane was incubated with primary antibody at 4° C. overnight and secondary antibody at room temperature for 2 h and then visualized by enhanced chemiluminescence kit (Thermo Fisher, USA), sequentially.
(§2) B. Quantitative PCR assay: HeLa cells were treated with 69, 70 or 97. The expression level of mRNA of target proteins was tested with qPCR kit (Takara).

KM mice = test: Acute toxicity assay; assay type: in vivo
Description: KM mice were housed individually in a specific pathogen free facility. Groups of mice (n=10 per group, half male and half female) were injected intraperitoneally once with various dosages of 69 (95, 70, 50, 35, 25 mg/kg), 70 (500, 425, 350, 275, 200 mg/kg), 97 (275, 200, 150, 125 and 100 mg/kg) or vehicle (8.3% cremohorp EL and 8.3% alcohol in PBS) as negative control, respectively. 69, 70 and 97 was dissolved in cremeohore EL and alcohol mixture (1:1, v/v) and further diluted with PBS (1:5, v/v). The death of mice were monitored daily and recorded up to 14 days after injection.

A2780 cells = test: Xenografts tumor growth assay in nude mice; assay type: in vivo, Balb/c nude mice; conditions: A2780 xenograft
Description: 6 weeks old female Balb/c nude mice were purchased from Shanghai Slac Laboratory Animal Co. Ltd. (Shanghai, China). 2*10^6 A2780 cells suspended in 0.2 mL PBS per mouse was injected subcutaneously into the nude mice. […] Administration of agents or vehicle, or agents and measurement of tumor volumes with a digital caliper was done once every 2 days. Tumor volumes were calculated as volume=shortest diameter (W)^2*longest diameter (L)*0.52. When the average tumor volumes of vehicle treated group reached 2000 mm^3 in diameter, the mice were sacrificed and the tumors were isolated and weighed. Visceral organs of the mice as well as solid tumors were further analyzed by H&E staining.

[4] = test system: p-histone H3, cyclin B1 and BuBR1; test: Cell cycle associated proteins assay; assay type: cell-based, human; conditions: HeLa cells, 24 h, Western blot and qPCR
Description: A. HeLa cells were treated with 69, 70, 97 or DMSO for 24 h. After being harvested, the cells were lysed, and the concentrations of total protein were determined by BCA protein assay kit (Beyotime, China). […] The membrane was blocked with 5% BSA in TBST for 1.5 h, then incubated overnight with specific primary antibodies (Proteintech) at 4° C. After being washed three times by TBST, the membrane was incubated with specific secondary antibodies (Abnova, Taipei, China) at room temperature for 2 h. Finally, chemiluminescent reagents (Millipore) were employed to detect the protein bands.
as §2

cellular apoptosis = test: Cell apoptosis analysis (Annexin V/PI); assay type: cell-based; conditions: 48 h, Annexin-V/PI flow cytometry
Description: Cell apoptosis was detected using FITC Annexin V Apoptosis Detection Kit (BD Biosciences) according to manufacturer's instructions. Briefly, cells were incubated with indicated concentrations of 69, 70 and 97, CA-4 as positive control or diluent (0.2% DMSO) as negative control for 48 h. Then the cells were harvested, washed twice with PBS, and re-suspended in binding buffer. After being stained with Annexin-V and PI for 15 min in the dark place, cells were subjected to flow cytometry (Cytomics FC 500 MPL, Beckman Coulter) analysis. The results were indicated as mean values from three independent determinations.

## COc1ccc([C@H]2C(=O)C(=O)N2c2cc(OC)c(OC)c(OC)c2)cc1OCc1ccccc1 [Compound 71, (S)-4-(3-(benzyloxy)-4-methoxyphenyl)-1-(3,4,5-trimethoxyphenyl)azetidine-2,3-dione]
SKOV3
  IC50: > 10 µM
Hela
  IC50: > 10 µM

## COc1ccc([C@H]2[C@H](C)C(=O)N2c2cc(OC)c(OC)c(OC)c2)cc1O [Compound 97, (3S,4R)-4-(3-hydroxy-4-methoxyphenyl)-3-methyl-1-(3,4,5-trimethoxyphenyl)azetidin-2-one]
Tubulin [1]
  tubulin assembly (immunofluorescence): significantly inhibit tubulin aggregation; also recorded: strongly inhibit tubulin assembly in cancer cells
MDA-MB-231 cells
  colony formation: significantly inhibit the formation of colonies of cancer cells
Tubulin [2]
  polymerized tubulin (immunoblotting): significantly inhibit tubulin aggregation; also recorded: dramatically reduction of polymerized tubulin
[3]
  expression of Bax, p53 and cleaved-PARP: significantly promote the expression of the proapoptotic protein Bax, the tumor suppressor gene p53, and the cleaved DNA repair enzyme; also recorded: significantly induce the expression of Bax, p53 and cleaved-PARP
KM mice; 100 mg/kg i.p. once
  No. of dead mice 5-14 days: 0
  No. of dead mice 1 day: 0
  No. of dead mice 2 days: 0
  No. of dead mice 3 days: 1
  No. of dead mice 4 days: 0
  No. of dead mice Total death: 1
  Survival (%) on day 14: 90%
KM mice; 125 mg/kg i.p. once
  No. of dead mice 5-14 days: 0
  No. of dead mice 1 day: 0
  No. of dead mice 2 days: 2
  No. of dead mice 3 days: 1
  No. of dead mice 4 days: 0
  No. of dead mice Total death: 3
  Survival (%) on day 14: 70%
KM mice; 150 mg/kg i.p. once
  No. of dead mice 5-14 days: 0
  No. of dead mice 1 day: 2
  No. of dead mice 2 days: 4
  No. of dead mice 3 days: 0
  No. of dead mice 4 days: 0
  No. of dead mice Total death: 6
  Survival (%) on day 14: 40%
KM mice; 200 mg/kg i.p. once
  No. of dead mice 5-14 days: 0
  No. of dead mice 1 day: 1
  No. of dead mice 2 days: 4
  No. of dead mice 3 days: 2
  No. of dead mice 4 days: 0
  No. of dead mice Total death: 7
  Survival (%) on day 14: 30%
KM mice; 275 mg/kg i.p. once
  No. of dead mice 5-14 days: 0
  No. of dead mice 1 day: 2
  No. of dead mice 2 days: 4
  No. of dead mice 3 days: 2
  No. of dead mice 4 days: 1
  No. of dead mice Total death: 9
  Survival (%) on day 14: 10%
A2780 cells; i.p. once every 2 days, 69 7.5 mg/kg, 70 12.5 mg/kg, 97 4 or 8 mg/kg
  tumor growth in vivo: significantly inhibit tumor growth in vivo; also recorded: anti-tumor activities in vivo
A2780 cells; treated groups
  H&E staining of liver, kidney and spleen: no abnormal areas are observed in tissue staining of liver, kidney and spleen; also recorded: no detectable abnormalities were observed in liver, kidney and spleen
  H&E staining of tumor sections (necrosis): cause tumor tissue to produce necrotic areas; also recorded: extensive areas of necrosis or cell death
[4]
  expression of p-histone H3, cyclin B1 and BuBR1: significantly promote the expression of phosphorylated histone H3, cyclin B1, and mitotic checkpoint protein BuBR1
Cellular apoptosis
  cellular apoptosis: significantly promote apoptosis; also recorded: significantly induce cellular apoptosis
